The values below come from ChEMBL document CHEMBL4334470, “Small molecule modulators targeting protein kinase CK1 and CK2” (Eur J Med Chem, 2019).

pIC50, pKi: −log10 of the molar value.

The target of experiment [1] is T1, Casein kinase II subunit alpha (Homo sapiens, UniProt P68400). The experiment is described as follows: Inhibition of CK2alpha (unknown origin) using RRRADDSDDDDD as substrate in presence of [gamma33P]-ATP by autoradiography.
For experiment [2], the target named is T1, Casein kinase II subunit alpha. Nature of the experiment: Inhibition of CK2alpha (unknown origin).
The target of a further experiment is Casein kinase I. The experiment is described as follows: Inhibition of CK1 (unknown origin). The experiment is classed as protein assay, Homo sapiens.
In experiment [3] the target is Casein kinase I isoform alpha (Homo sapiens, UniProt P48729). The experiment is described as follows: Inhibition of CK1alpha (unknown origin).
Sequence of Casein kinase I isoform alpha (P48729 whole entry, canonical isoform): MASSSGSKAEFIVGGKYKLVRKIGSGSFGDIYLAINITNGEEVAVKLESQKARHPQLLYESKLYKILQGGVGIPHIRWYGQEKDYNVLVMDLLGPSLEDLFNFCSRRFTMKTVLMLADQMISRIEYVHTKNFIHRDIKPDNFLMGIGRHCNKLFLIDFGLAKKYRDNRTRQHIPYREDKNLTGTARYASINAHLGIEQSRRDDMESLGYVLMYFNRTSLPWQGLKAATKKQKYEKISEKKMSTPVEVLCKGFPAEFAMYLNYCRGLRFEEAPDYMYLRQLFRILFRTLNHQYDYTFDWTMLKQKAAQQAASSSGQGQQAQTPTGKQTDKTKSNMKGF
The target in experiment [4] is Casein kinase I delta/epsilon (Homo sapiens, UniProt P48730+P49674). Nature of the experiment: Inhibition of CK1delta/CK1epsilon (unknown origin). The experiment is classed as protein-complex assay.
Sequence of Casein kinase I delta/epsilon (P48730 whole entry): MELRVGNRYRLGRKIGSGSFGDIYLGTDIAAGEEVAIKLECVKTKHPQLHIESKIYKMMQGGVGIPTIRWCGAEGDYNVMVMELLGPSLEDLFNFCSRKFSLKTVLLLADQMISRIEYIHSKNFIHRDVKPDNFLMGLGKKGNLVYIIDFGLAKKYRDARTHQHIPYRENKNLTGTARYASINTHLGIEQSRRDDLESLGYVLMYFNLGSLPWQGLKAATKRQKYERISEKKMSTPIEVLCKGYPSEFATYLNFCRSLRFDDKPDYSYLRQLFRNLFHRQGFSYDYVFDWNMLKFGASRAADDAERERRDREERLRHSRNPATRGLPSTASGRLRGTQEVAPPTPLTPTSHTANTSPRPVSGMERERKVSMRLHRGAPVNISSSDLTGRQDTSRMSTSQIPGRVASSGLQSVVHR
Sequence of Casein kinase I delta/epsilon (P49674 whole entry): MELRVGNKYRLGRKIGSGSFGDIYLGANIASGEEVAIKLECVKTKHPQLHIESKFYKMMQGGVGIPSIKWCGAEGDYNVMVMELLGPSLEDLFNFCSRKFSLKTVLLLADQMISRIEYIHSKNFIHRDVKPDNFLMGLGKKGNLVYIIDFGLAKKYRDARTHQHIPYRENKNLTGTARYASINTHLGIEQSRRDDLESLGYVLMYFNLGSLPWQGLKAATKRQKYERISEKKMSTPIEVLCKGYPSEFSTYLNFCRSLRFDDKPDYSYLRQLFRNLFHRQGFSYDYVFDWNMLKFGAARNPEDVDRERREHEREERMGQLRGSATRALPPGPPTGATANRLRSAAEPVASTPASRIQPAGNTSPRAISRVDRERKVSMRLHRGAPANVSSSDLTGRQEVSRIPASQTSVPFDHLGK

T1 sequence (P68400 whole entry): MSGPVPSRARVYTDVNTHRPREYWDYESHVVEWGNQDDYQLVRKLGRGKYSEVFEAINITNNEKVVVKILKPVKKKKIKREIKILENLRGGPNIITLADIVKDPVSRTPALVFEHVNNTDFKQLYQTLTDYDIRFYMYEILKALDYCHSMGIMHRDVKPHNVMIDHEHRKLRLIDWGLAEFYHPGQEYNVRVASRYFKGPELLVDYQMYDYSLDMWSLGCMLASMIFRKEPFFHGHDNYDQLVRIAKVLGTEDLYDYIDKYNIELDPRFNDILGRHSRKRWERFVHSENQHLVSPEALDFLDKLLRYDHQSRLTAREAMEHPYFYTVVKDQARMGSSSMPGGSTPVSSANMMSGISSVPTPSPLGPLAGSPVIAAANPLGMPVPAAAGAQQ

For the compound `O=C(O)/C=C/c1cc(Br)c(Br)c(Br)c1Br`, the pKi in experiment [1] was 7.11.
In experiment [2], `O=C1c2c(O)cccc2C(=O)c2c([N+](=O)[O-])ccc(O)c21` gave a pKi of 6.10.
`NCCNS(=O)(=O)c1ccc(Cl)c2ccncc12` had an IC50 against Casein kinase I of 9.5 µM.
For `O=c1c2c(O)cccc2oc2c([N+](=O)[O-])ccc(O)c12`, in experiment [2], the negative logarithm of the Ki (pKi) was 6.11.
The same measure, in the same setting: to `O=c1oc2c(Br)c(O)ccc2c2ccc(O)cc12` belongs 8.15.
On the same count and under the same terms, then `Cc1c(Br)c(=O)oc2c(Br)c(O)ccc12`, with 7.22.
Consider `COc1cc(OC)c(/C=C2\C(=O)Nc3ccccc32)c(OC)c1`, for which the pIC50 was 4.80 in experiment [3] and 6.00 in experiment [4].
`CCCCCCCCCCCC1=C(O)C(=O)C2=C(OC(N)=C(C#N)C2[N+](=O)[O-])C1=O` (stereo unspecified) gave a pKi in experiment [2] of 6.66.
Still for that read-out and setting: then `O=c1oc2c(O)c(O)cc3c(=O)oc4c(O)c(O)cc1c4c23` [ELLAGIC ACID], with 7.70; and `O=c1c(O)c(-c2ccc(O)c(O)c2)oc2cc(O)ccc12` [FISETIN], with 6.46.

As usually defined, the pKi is the Ki on a negative log10 scale, so that one unit is a factor of ten. What is called IC50 is the concentration needed to halve the response being measured. The low end stands for higher potency, the high end for lower potency. In general, pIC50 refers to the IC50 on a negative log10 scale, so that one unit is a factor of ten. Lower therefore signals a large IC50.
